Measurements from US5124157A, “Method and device for administering dexmedetomidine transdermally” (Cygnus Therapeutic Systems, priority 1989, dated 1992).
“Also recorded” adds a separate entry of the source.

Tests used:
alpha-2 receptor = conditions: background, cited from earlier work; for activity/potency of the isomers (in words): isomers compared with each other
[1] = no data given; cited from earlier work
[2] = skin permeability, base versus salts (general statement); format: in vitro ADME; conditions: free base vs its salts; no data given

Structure (SMILES) | alpha-2 receptor agonist potency and selectivity (in words) (alpha-2 receptor) | activity/potency of the isomers (in words) (alpha-2 receptor) | clearance rate from the body (in words) [1] | skin permeability of base form relative to salts (in words) [2]
Cc1cccc(C(C)c2cnc[nH]2)c1C (stereo not drawn) [Medetomidine, 4(5)-[alpha-methyl-2,3-dimethylbenzyl] imidazole] | potent and selective alpha-2 receptor agonist |  |  | 
Cc1cccc([C@@H](C)c2cnc[nH]2)c1C [Preparation 1-isomer] |  | far less potent |  | 
Cc1cccc([C@H](C)c2cnc[nH]2)c1C [dexmedetomidine] |  | the active isomer | quite high; also recorded: relatively high | the skin is somewhat more permeable to the base form of the drug than its salts
